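96-well plates; 48 h exposure; 5 concentrations. Endpoints by linear interpolation between flanking doses. Not reached: highest tested concentration assigned. Here, GI50 denotes the concentration required for 50% inhibition of growth.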 The source made the active and inactive calls. Cut-off read from the data, not from the text of the source: active = GI50 up to about 1.1 µM and inactive = higher.
How the values were obtained:
Test in all cases: DTP human tumour cell line panel, 48 h
NCI-H460 = tested on: NCI-H460
A498 = tested on: A498
SF-268 = tested on: SF-268
HCC 2998 = tested on: HCC 2998
DU-145 = tested on: DU-145
OVCAR-3 = tested on: OVCAR-3
SF-539 = tested on: SF-539
CAKI-1 = tested on: CAKI-1
IGROV-1 = tested on: IGROV-1
MDA-N = tested on: MDA-N
RPMI-8226 = tested on: RPMI-8226
MDA-MB-435 = tested on: MDA-MB-435
T47D = tested on: T47D
UACC-257 = tested on: UACC-257
SR = tested on: SR
LOX IMVI = tested on: LOX IMVI
HT-29 = tested on: HT-29
MCF7 = tested on: MCF7
HCT-116 = tested on: HCT-116
U-251 = tested on: U-251
NCI/ADR-RES = tested on: NCI/ADR-RES
UACC-62 = tested on: UACC-62
OVCAR-8 = tested on: OVCAR-8
Malme-3M = tested on: Malme-3M
OVCAR-4 = tested on: OVCAR-4
SF-295 = tested on: SF-295
HL-60 = tested on: HL-60
SK-MEL-28 = tested on: SK-MEL-28
SK-MEL-2 = tested on: SK-MEL-2
NCI-H522 = tested on: NCI-H522
M14 = tested on: M14
MOLT-4 = tested on: MOLT-4
786-0 = tested on: 786-0
MDA-MB-231 = tested on: MDA-MB-231
ACHN = tested on: ACHN
COLO 205 = tested on: COLO 205
NCI-H23 = tested on: NCI-H23
SN12C = tested on: SN12C
SNB-19 = tested on: SNB-19
HOP-92 = tested on: HOP-92
HOP-62 = tested on: HOP-62
TK-10 = tested on: TK-10
K562 = tested on: K562
SNB-75 = tested on: SNB-75
PC-3 = tested on: PC-3
SW-620 = tested on: SW-620
OVCAR-5 = tested on: OVCAR-5
UO-31 = tested on: UO-31
EKVX = tested on: EKVX
HCT-15 = tested on: HCT-15
CCRF-CEM = tested on: CCRF-CEM
SK-OV-3 = tested on: SK-OV-3
A549 = tested on: A549
NCI-H226 = tested on: NCI-H226
Hs-578T = tested on: Hs-578T
RXF 393 = tested on: RXF 393
SK-MEL-5 = tested on: SK-MEL-5
KM12 = tested on: KM12

In the case of `CCCCN(CCCC)CCC(O)c1cc(-c2ccc(C(F)(F)F)cc2)nc(-c2ccc(C(F)(F)F)cc2)c1` (configuration not stated), the GI50 (NCI-H460) is reported as > 100 µM (inactive), the GI50 (A498) is reported as > 100 µM (inactive) and the GI50 (SF-268) is reported as > 100 µM (inactive). For the same molecule, the GI50 (HCC 2998) was > 100 µM (inactive), the GI50 (DU-145) was > 100 µM (inactive) and the GI50 (OVCAR-3) was > 100 µM (inactive). For the same molecule, the GI50 (SF-539) was > 100 µM (inactive), the GI50 (CAKI-1) was > 100 µM (inactive) and the GI50 (IGROV-1) was > 100 µM (inactive). The GI50 (MDA-N) was > 100 µM (inactive), the GI50 (RPMI-8226) was > 100 µM (inactive) and the GI50 (MDA-MB-435) was > 100 µM (inactive). For the same molecule, the GI50 (T47D) was > 100 µM (inactive), the GI50 (UACC-257) was > 100 µM (inactive) and the GI50 (SR) was > 100 µM (inactive). The GI50 (LOX IMVI) was > 100 µM (inactive), the GI50 (HT-29) was > 100 µM (inactive) and the GI50 (MCF7) was > 100 µM (inactive). For the same molecule, the GI50 (HCT-116) was > 100 µM (inactive), the GI50 (U-251) was > 100 µM (inactive) and the GI50 (NCI/ADR-RES) was > 100 µM (inactive). The GI50 (UACC-62) was > 100 µM (inactive), the GI50 (OVCAR-8) was > 100 µM (inactive) and the GI50 (Malme-3M) was > 100 µM (inactive). The GI50 (OVCAR-4) was > 100 µM (inactive), the GI50 (SF-295) was > 100 µM (inactive) and the GI50 (HL-60) was > 100 µM (inactive). The GI50 (SK-MEL-28) was > 100 µM (inactive), the GI50 (SK-MEL-2) was > 100 µM (inactive) and the GI50 (NCI-H522) was > 100 µM (inactive). The GI50 (M14) was > 100 µM (inactive), the GI50 (MOLT-4) was > 100 µM (inactive) and the GI50 (786-0) was > 100 µM (inactive). The GI50 (MDA-MB-231) was > 100 µM (inactive), the GI50 (ACHN) was > 100 µM (inactive) and the GI50 (COLO 205) was > 100 µM (inactive). For the same molecule, the GI50 (NCI-H23) was > 100 µM (inactive), the GI50 (SN12C) was > 100 µM (inactive) and the GI50 (SNB-19) was > 100 µM (inactive). For the same molecule, the GI50 (HOP-92) was > 100 µM (inactive), the GI50 (HOP-62) was > 100 µM (inactive) and the GI50 (TK-10) was > 100 µM (inactive). For the same molecule, the GI50 (K562) was > 100 µM (inactive), the GI50 (SNB-75) was > 100 µM (inactive) and the GI50 (PC-3) was > 100 µM (inactive). For the same molecule, the GI50 (SW-620) was > 100 µM (inactive), the GI50 (OVCAR-5) was > 100 µM (inactive) and the GI50 (UO-31) was > 100 µM (inactive). For the same molecule, the GI50 (EKVX) was > 100 µM (inactive), the GI50 (HCT-15) was > 100 µM and the GI50 (CCRF-CEM) was > 100 µM (inactive).
With `N#C/C(C(=O)NCc1ccccc1)=C(/N)N1CCCC1` the GI50 (SK-OV-3) was > 100 µM (inactive), the GI50 (NCI-H460) was > 100 µM (inactive) and the GI50 (A498) was 94.8 µM (inactive). For the same molecule, the GI50 (SF-268) was > 100 µM (inactive), the GI50 (HCC 2998) was > 100 µM (inactive) and the GI50 (DU-145) was > 100 µM (inactive). The GI50 (OVCAR-3) was > 100 µM (inactive), the GI50 (SF-539) was > 100 µM (inactive) and the GI50 (CAKI-1) was 39.6 µM (inactive). For the same molecule, the GI50 (A549) was > 100 µM (inactive), the GI50 (IGROV-1) was > 100 µM (inactive) and the GI50 (MDA-N) was > 100 µM (inactive). For the same molecule, the GI50 (RPMI-8226) was > 100 µM (inactive), the GI50 (MDA-MB-435) was > 100 µM (inactive) and the GI50 (T47D) was > 100 µM (inactive). For the same molecule, the GI50 (UACC-257) was > 100 µM (inactive), the GI50 (SR) was > 100 µM (inactive) and the GI50 (LOX IMVI) was > 100 µM (inactive). For the same molecule, the GI50 (HT-29) was > 100 µM (inactive), the GI50 (HCT-116) was > 100 µM (inactive) and the GI50 (U-251) was > 100 µM (inactive). For the same molecule, the GI50 (NCI/ADR-RES) was > 100 µM (inactive), the GI50 (UACC-62) was > 100 µM (inactive) and the GI50 (OVCAR-8) was > 100 µM (inactive). For the same molecule, the GI50 (Malme-3M) was > 100 µM (inactive), the GI50 (OVCAR-4) was > 100 µM (inactive) and the GI50 (SF-295) was > 100 µM (inactive). The GI50 (HL-60) was > 100 µM (inactive), the GI50 (SK-MEL-28) was > 100 µM (inactive) and the GI50 (SK-MEL-2) was > 100 µM (inactive). The GI50 (NCI-H226) was > 100 µM (inactive), the GI50 (NCI-H522) was > 100 µM (inactive) and the GI50 (M14) was > 100 µM (inactive). For the same molecule, the GI50 (MOLT-4) was > 100 µM (inactive), the GI50 (786-0) was > 100 µM (inactive) and the GI50 (Hs-578T) was > 100 µM (inactive). The GI50 (MDA-MB-231) was > 100 µM (inactive), the GI50 (ACHN) was > 100 µM (inactive) and the GI50 (COLO 205) was > 100 µM (inactive). The GI50 (RXF 393) was > 100 µM (inactive), the GI50 (NCI-H23) was > 100 µM (inactive) and the GI50 (SN12C) was > 100 µM (inactive). For the same molecule, the GI50 (SNB-19) was > 100 µM (inactive), the GI50 (HOP-92) was 97.7 µM (inactive) and the GI50 (HOP-62) was > 100 µM (inactive). The GI50 (TK-10) was > 100 µM (inactive), the GI50 (K562) was > 100 µM (inactive) and the GI50 (PC-3) was > 100 µM (inactive). The GI50 (SW-620) was > 100 µM (inactive), the GI50 (SK-MEL-5) was > 100 µM (inactive) and the GI50 (OVCAR-5) was > 100 µM (inactive). The GI50 (KM12) was > 100 µM (inactive), the GI50 (UO-31) was 46.3 µM (inactive) and the GI50 (EKVX) was > 100 µM (inactive). The GI50 (HCT-15) was > 100 µM and the GI50 (CCRF-CEM) was > 100 µM (inactive).

Reference: ChEMBL document CHEMBL1201862, “PubChem BioAssay data set” (2004)
